Data taken from US8586034B2, “Cytomegalovirus disintegrin-like peptides” (priority 2004, dated 2013).

Tests used:
[1] = system: diI-labeled HCMV; type: cell-based, Human cytomegalovirus; conditions: gBDLD or BSA 320 μg/mL, soluble heparin 50 μg/mL; 24 hours post-infection
[2] = system: HCMV AD 169; test: Virus binding assay (HCMV attachment, gB ELISA); type: cell-based, Human cytomegalovirus; conditions: NHDF, 4° C.; 1 mM gB disintegrin-like peptide, 1:50 DE9, α2 and α6 integrin antibodies 20 μg/mL
Experimental: NHDF cells were grown in 96-well plates and treated with integrin-neutralizing antibodies, peptides, or heparin for 60 minutes at 4° C. Cells were then challenged with HCMV AD 169 at a multiplicity of infection (MOI) of 5 pfu/cell for 60 minutes at 4° C. Unbound virus was removed and cells were washed and fixed with 3% paraformaldehyde. Bound HCMV was detected with monoclonal antibody 27-78, horseradish peroxidase (HRP)-conjugated goat anti-mouse secondary antibody, and ImmunoPure TMB Substrate Kit (Pierce, Rockford, Ill.). Absorbance was measured at 450 nm. All experiments were performed in triplicate.
During virus infection, integrins are utilized as primary viral attachment receptors or as post-attachment (fusion-activating) or internalization receptors.^11 To determine at which step in the HCMV entry pathway integrins are functioning, cell binding (i.e., attachment) experiments were performed, as well as assays to measure viral payload delivery into the cytoplasm (internalization). For the binding assays, virus was bound at 4° C. to allow for stable virus binding, but to restrict fusion and internalization. The results are depicted in FIG. 6A. […] Attachment was measured by gB ELISA.

[3] = system: HCMV strain AD169; test: Virus entry assay, HCMV infectivity by IE gene expression; type: cell-based, Human cytomegalovirus; conditions: NHDFs treated prior to HCMV challenge
Experimental: (§1) For CMV entry assays, subconfluent cells were grown on glass coverslips in 12-well plates. Integrin neutralizing antibodies or peptides were incubated in serum-free DMEM with cell monolayer for 30 minutes at 37° C. Cells were washed with phosphate-buffered saline (PBS) and incubated with HCMV strain AD169, MCMV Smith strain, or MCMV-GFP for 60 minutes at 37° C. Any non-penetrated virus was inactivated with low-pH citrate buffer (40 mM citric acid, 10 mM KCl, 135 mM NaCl, pH 3.0). The cells were incubated 20-24 hours at 37° C. in DMEM supplemented with 2% bovine calf serum (BCS). […] Experiments were performed in triplicate with a minimum of 1000 cells scored per coverslip. […] Cells were incubated 6 hours at 37° C. in DMEM supplemented with 10% BCS prior to lysis (100 mM sodium phosphate, 10 mM KCl, 1 mM magnesium sulfate, 0.1% NP-40, pH 7.4). β-galactosidase activity was measured by addition of o-nitrophenyl-β-D-galactopyranoside (ONPG) and the absorbance was monitored at 420 nm.
FIG. 2A presents the results of a series of assays wherein NHDFs were treated with HCMV gB disintegrin-like peptide, gB disintegrin-like Null peptide, RGD, or RGE peptide prior to HCMV challenge (as indicated in the FIG. 2A). Infectivity was determined by IE gene expression. […]

[4] = system: HCMV; test: Viral payload delivery, pp65 localization; type: cell-based, Human cytomegalovirus; conditions: human fibroblasts treated, then infected with HCMV
Experimental: as §1
Next, an assay was performed that directly measured delivery of an internal virion component. […] FIG. 6B is a histogram showing the results of a series of assays wherein human fibroblasts were treated with various integrin-blocking agents, infected with HCMV, and then assayed for viral payload as measured by pp65 localization. […]

[5] = system: HSV-1(KOS)gL86; test: HSV entry assay (β-galactosidase activity); type: cell-based, herpes simplex virus-1; conditions: NHDF cells treated with peptide
Experimental: For CMV entry assays, subconfluent cells were grown on glass coverslips in 12-well plates. Integrin neutralizing antibodies or peptides were incubated in serum-free DMEM with cell monolayer for 30 minutes at 37° C. Cells were washed with phosphate-buffered saline (PBS) and incubated with HCMV strain AD169, MCMV Smith strain, or MCMV-GFP for 60 minutes at 37° C. Any non-penetrated virus was inactivated with low-pH citrate buffer (40 mM citric acid, 10 mM KCl, 135 mM NaCl, pH 3.0). The cells were incubated 20-24 hours at 37° C. in DMEM supplemented with 2% bovine calf serum (BCS). Immunofluorescence analysis was performed as previously described^28 with either mouse anti-IE monoclonal antibody 1203, mouse anti-pp65 monoclonal antibody or rabbit anti-MCMV e1 polyclonal, followed by detection with a fluorescein-conjugated goat anti-mouse secondary or a fluorescein-conjugated goat anti-rabbit secondary antibody. Nuclei were stained with 300 nM 4′,6-diamidino-2-phenylindole (DAPI). Experiments were performed in triplicate with a minimum of 1000 cells scored per coverslip. […] Cells were incubated 6 hours at 37° C. in DMEM supplemented with 10% BCS prior to lysis (100 mM sodium phosphate, 10 mM KCl, 1 mM magnesium sulfate, 0.1% NP-40, pH 7.4). β-galactosidase activity was measured by addition of o-nitrophenyl-β-D-galactopyranoside (ONPG) and the absorbance was monitored at 420 nm. […]

[6] = system: MCMV Smith strain; test: Virus entry assay, MCMV infectivity by e1-positive cells; type: cell-based, Murine cytomegalovirus; conditions: mouse fibroblasts (murine 3T3) treated with peptide
Experimental: as §1, with “nm. […]” for “nm.”
FIG. 4B is a histogram showing the results of an assay wherein GD25, GD25β1 and 3T3 cells were treated with β1, β3, and β1+β3 antibodies, followed by MCMV infection. As described above, infectivity was determined by scoring e1-(early protein) positive cells. […]

Substance | HCMV fusion (dye transfer) and gene expression [1] | HCMV attachment (gB ELISA) [2] | HCMV infectivity (IE gene expression) [3] | uptake of pp65 tegument protein [4] | ability of HSV-1 to infect cells [5] | MCMV infectivity [6]
heparin [soluble heparin, reference compound] | blocks HCMV attachment | prevented virus attachment |  |  |  | 
RVCSMAQGTDLIRFERNIIC (listed as Human cytomegalovirus) [gB disintegrin-like peptide, synthetic 20 amino acid peptide encompassing the HCMV gB disintegrin-like domain] |  | no effect | dose-dependent inhibitory response | little uptake | no effect | dramatic reduction in MCMV infectivity
AVCSMAGGTAAIRAERNIIC (listed as Human cytomegalovirus) [gB disintegrin-like null peptide, null peptide with alanine substitutions in the disintegrin-like consensus residues, reference compound] |  |  | able to infect | not |  | 
